Values quoted from earlier work, collected in patent publication US8512972B2, “Crystal of hypoxia inducible factor 1 alpha prolyl hydroxylase” (Akebia Therapeutics, Inc., priority 2006, dated 2013).

Tests used:
HIF protein = conditions: administered to rats
[1] = tested on: HIF protein in HT1080, PC12W and 3T3L1 cells; conditions: HT1080, PC12W and 3T3L1 cells in culture
[2] = tested on: GLUT1, heme oxygenase and nitric oxide synthase; conditions: neonatal rat cardiomyocytes

expression of GLUT1, heme oxygenase and nitric oxide synthase [2]	Compound	HIF protein expression in the kidney (HIF protein)	induction of HIF protein [1]
–	N[C@@H](Cn1ccc(=O)c(O)c1)C(=O)O [L-mimosine]	induced HIF protein expression	induce HIF protein
induced the expression	COC(=O)CNC(=O)C(=O)OC [dimethyloxalylglycine]	–	–
induced the expression	CCOC(=O)c1ccc(O)c(O)c1 [ethyl-3,4 dihydroxybenzoate]	–	induce HIF protein
